Data taken from patent US20100063007A1, “PESTICIDE C[…]-[…] AND AN I[…] SUBSTANCE” (BAYER CROPSCIENCE AG, priority 2006, published 2010).

How the values were obtained:
Plutella xylostella = experiment: Efficacy Example A: Plutella xylostella test (cabbage leaf dip, larval mortality); format: in vivo; settings: mortality of larvae after 6 days
Procedure: Efficacy Example A: Plutella xylostella Test
(§1) After a period of time of 6 days, the mortality is determined. 100% means that all the caterpillars have been killed; 0% means that none of the caterpillars have been killed.

Spodoptera frugiperda = experiment: Efficacy Example B: Spodoptera frugiperda test (cabbage leaf dip, larval mortality); format: in vivo; settings: mortality of larvae after 6 days
Procedure: Efficacy Example B: Spodoptera frugiperda Test
as §1

Q: `CN/C(=N\[N+](=O)[O-])NCc1cnc(Cl)s1` [clothianidin] was tested. Which “Efficacy (%)” value (Plutella xylostella; rate of application 100 ppm) did it give?
A: The value was 80%.

Q: For `O=[N+]([O-])NC1=NCCN1Cc1ccc(Cl)nc1` [imidacloprid], which “Efficacy (%)” value (Spodoptera frugiperda; rate of application 4 ppm) is on record?
A: Its value is 30%.

Q: For `N#C/N=C1\SCCN1Cc1ccc(Cl)nc1` [thiacloprid], which “Efficacy (%)” value (Plutella xylostella; rate of application 20 ppm) is on record?
A: The value was 5%.

Q: How did the “Efficacy (%)” value (Spodoptera frugiperda; rate of application 20 ppm) turn out when `CN1COCN(Cc2cnc(Cl)s2)/C1=N\[N+](=O)[O-]` [thiamethoxam] was run?
A: Its value is 0%.
